This note sets out measurements from patent publication US20200399250A1, “Pyrimidine Derivatives as Tropomyosin Receptor Kinase A (TRKA) Inhibitors” (BIOMED X GMBH, priority 2017, published 2020).

For assay [1], the target named is T1, TrkA (Homo sapiens, UniProt P04629). The assay is described as follows: KINOMEscan primary screen against TrkA. It is filed as binding. The conditions noted are these: % of control. As for the experimental part: (§1) Compounds were initially tested in a primary screen against TrkA (at 10 and 100 nM) and AurA (at 100 nM and 1 μM) using the KINOMEscan technology from DiscoverX Corporation, Fremont, Calif., USA (https://www.discoverx.com/services/drug-discovery-development-services/kinase-profiling/kinomescan).
T1 sequence (P04629 33-796): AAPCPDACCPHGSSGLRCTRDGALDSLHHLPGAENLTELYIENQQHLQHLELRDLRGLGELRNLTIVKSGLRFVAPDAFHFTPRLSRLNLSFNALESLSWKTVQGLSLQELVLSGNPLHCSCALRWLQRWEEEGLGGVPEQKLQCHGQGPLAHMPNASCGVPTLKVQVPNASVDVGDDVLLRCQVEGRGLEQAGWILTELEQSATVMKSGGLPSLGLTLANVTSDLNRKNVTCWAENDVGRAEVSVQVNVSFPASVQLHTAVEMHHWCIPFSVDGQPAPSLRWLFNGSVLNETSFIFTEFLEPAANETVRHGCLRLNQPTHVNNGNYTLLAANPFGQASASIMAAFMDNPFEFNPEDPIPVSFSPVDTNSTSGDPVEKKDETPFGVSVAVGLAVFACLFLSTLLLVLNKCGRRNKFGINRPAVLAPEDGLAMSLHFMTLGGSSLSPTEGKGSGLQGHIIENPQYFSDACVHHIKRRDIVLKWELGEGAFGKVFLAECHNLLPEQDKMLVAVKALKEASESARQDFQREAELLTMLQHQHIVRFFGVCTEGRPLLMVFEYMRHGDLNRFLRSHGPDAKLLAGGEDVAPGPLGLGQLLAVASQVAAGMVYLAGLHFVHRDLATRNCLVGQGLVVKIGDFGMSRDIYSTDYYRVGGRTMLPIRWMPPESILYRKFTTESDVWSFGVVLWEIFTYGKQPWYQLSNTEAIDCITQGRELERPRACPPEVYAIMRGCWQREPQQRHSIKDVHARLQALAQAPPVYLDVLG
Results were reported as % of control (% Ctrl.=(test compound signal−positive control signal)/(DMSO signal−positive control signal). KINOMEscan is an active site-directed competition binding assay that quantitatively measures the ability of a compound to compete with an immobilized, active-site directed ligand.

Assay [2] addresses full-length human TrkA receptor (Homo sapiens, UniProt P04629). Briefly: PathHunter cellular functional assay, antagonism of β-NGF. It is filed as cell-based. The following applies: antagonism at EC80 (0.03 μg/ml) of β-NGF; read-out: Cellular assay [RC50]. From the text:
The two compounds a1 and b7 were additionally tested in a functional assay using the PathHunter® technology (DiscoverX Corporation, Freemont, Calif., USA; https://www.discoverx.com/technologies-platforms/enzyme-fragment-complementation-technoloqy/cell-based-efc-assays/protein-protein-interactions/kinases-cell-based-(rtk-ctk)). In this assay, the full-length human TrkA receptor (i.e. including ligand-binding and kinase domains) is expressed as a C-terminal (intracellular) fusion with a small peptide epitope, called Prolink™ (PK). Furthermore, a SH2 domain containing protein (i.e. Shc1) is co-expressed with a larger Enzyme Acceptor (EA) fragment. Activation of the TrkA receptor by adding the agonist ligand (β-NGF), leads to the auto-phosphorylation of the kinase and subsequent binding of the Shc1-EA protein. That recruitment results in an active B-galactosidase enzyme that is detected by addition of a chemiluminescent substrate.
Compounds were tested for antagonism using EC80 concentration (i.e. 0.03 μg/ml) of β-NGF. Data was normalized to the maximal and minimal response observed in the presence of EC80 agonist ligand (3-NGF) and vehicle (DMSO, final concentration 1%), respectively.

Assay [3] addresses T1, TrkA. The assay is described as follows: KdELECT Kd measurement (KINOMEscan), TrkA. It counts as binding. As for the experimental part:
(§2) Kd measurements were done via the KdELECT product service from DiscoverX Corporation (Freemont, Calif., USA) which also employs the KINOMEscan technology. Here, inhibitor binding constants (Kd values) are calculated from duplicate 11-point dose-response curves.

Assay [4] addresses TrkA. The assay is described as follows: KdELECT Kd measurement (KINOMEscan), TrkA. The following applies: TrkA pKd versus AurA pKd. It is filed as binding. As to the method: as §2
The target of assay [5] is T2, AurA (Homo sapiens, UniProt O14965).
T2 sequence (O14965 1-403): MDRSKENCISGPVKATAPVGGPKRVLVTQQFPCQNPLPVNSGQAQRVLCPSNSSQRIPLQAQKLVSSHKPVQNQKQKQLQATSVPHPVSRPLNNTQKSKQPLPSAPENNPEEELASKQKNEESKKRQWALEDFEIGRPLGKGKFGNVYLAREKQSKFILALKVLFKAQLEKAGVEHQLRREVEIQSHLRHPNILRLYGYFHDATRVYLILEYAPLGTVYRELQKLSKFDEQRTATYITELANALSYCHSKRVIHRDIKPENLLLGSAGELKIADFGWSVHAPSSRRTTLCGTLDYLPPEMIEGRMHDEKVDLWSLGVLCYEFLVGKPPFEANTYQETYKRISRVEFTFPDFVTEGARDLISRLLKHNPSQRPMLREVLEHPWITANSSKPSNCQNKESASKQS
Briefly: KINOMEscan primary screen against AurA. The following applies: % of control. It is filed as binding. As to the method: as §1

A further assay deals with panel of 97 kinases. The assay is described as follows: Selectivity profiling, scanEDGE kinase panel (KINOMEscan). It is filed as binding. The conditions noted are these: 100 nM, cut-off <35% ctrl. As for the experimental part: Selectivity profiling was done over a panel of 97 kinases at 100 nM concentration (scanEDGE assay panel from Discover X, which also uses the KINOMEscan technology, whereat KIT(D816V) and KIT (V559D, T6701) were replaced by TrkB and TrkC). […] The employed profiling panel consisted of the following kinases: ABL1(T3151)-phosphorylated, ABL1-nonphosphorylated, ABL1-phosphorylated, ACVR1B, ADCK3, AKT1, AKT2, ALK, AURKA, AURKB, AXL, BMPR2, BRAF, BRAF (V600E), BTK, CDK11, CDK2, CDK3, CDK7, CDK9, CHEK1, CSF1R, CSNK1D, CSNK1G2, DCAMKL1, DYRK1B, EGFR, EGFR (L858R), EPHA2, ERBB2, ERBB4, ERK1, FAK, FGFR2, FGFR3, FLT3, GSK3B, IGF1R, IKK-alpha, IKK-beta, INSR, JAK2 (JH1domain-catalytic), JAK3 (JH1domain-catalytic), JNK1, JNK2, JNK3, KIT, LKB1, MAP3K4, MAPKAPK2, MARK3, MEK1, MEK2, MET, MKNK1, MKNK2, MLK1, p38-alpha, p38-beta, PAK1, PAK2, PAK4, PCTK1, PDGFRA, PDGFRB, PDPK1, PIK3C2B, PIK3CA, PIK3CG, PIM1, PIM2, PIM3, PKAC-alpha, PLK1, PLK3, PLK4, PRKCE, RAF1, RET, RIOK2, ROCK2, RSK2 (Kin. Dom. 1-N-terminal), SNARK, SRC, SRPK3, TGFBR1, TIE2, TRKA, TRKB, TRKC, TSSK1B, TYK2 (JH1domain-catalytic), ULK2, VEGFR2, YANK3, ZAP70

Assay [6] concerns the target T2, AurA. The assay is described as follows: KdELECT Kd measurement (KINOMEscan), AurA. It counts as binding. As for the experimental part:
as §2

Where [7] appears, read: duplicate 11-point dose-response curves.

Entries after “also recorded” stand apart in the source; their conditions may differ.

full-length human TrkA receptor, sequence (P04629 33-796): as the sequence (P04629 33-796) above
full-length human TrkA receptor, sequence (P01138 122-241 partner): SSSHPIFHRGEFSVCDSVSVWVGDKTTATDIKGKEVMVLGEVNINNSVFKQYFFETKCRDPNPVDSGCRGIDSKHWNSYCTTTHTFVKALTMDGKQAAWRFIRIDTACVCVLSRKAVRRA

A word on the Kd: it is the constant that tells how readily two partners part at equilibrium. Low readings indicate higher affinity, high ones lower affinity. For `Cc1cc(Nc2cc(N3CCN(C)CC3)nc(SCc3ccc(F)cc3)n2)n[nH]1` [b7, 2-{[(4-fluorophenyl)methyl]sulfanyl}-N-(5-methyl-1H-pyrazol-3-yl)-6-(4-methylpiperazin-1-yl)pyrimidin-4-amine], on TrkA [1] (10 nM compound), the “% Ctrl. TrkA @10 nM” value came out at 9.3 % Ctrl. Besides, on TrkA [1] (100 nM compound), the “% Ctrl. TrkA @100 nM” value was 0.5 % Ctrl. Moreover, the IC50 in assay [2] worked out at 23 nM. The “TrkA [pKd]” value at TrkA [3] is on record as 9.0. Further, the equilibrium dissociation constant (Kd) at TrkA [3] (setting [7]) was 1.1 nM; at AurA [6] (setting [7]) it was 28 nM. Moreover, on TrkA [4], the ΔpKd is 1.4. At AurA [5] (100 nM compound), the “% Ctrl. AurA @100 nM” value was 15 % Ctrl. Moreover, the “% Ctrl. AurA @1 μM” value on AurA [5] (1 μM compound) is 0.85 % Ctrl. Further, the “# Hits” value in the assay on panel of 97 kinases (N = 92 non-mutant kinases) is reported as 18. In addition, in the assay with panel of 97 kinases, the “List of inhibited kinases” value is “TrkA, TrkB, TrkC, ABL1, ALK,; also recorded: AurA, FLT3, FMS, JAK2, JAK3,; also recorded: KDR, KIT, NuaK2, PDGFRb, PLK4,; also recorded: RET, SRC, TYK2”. The “Selectivity Score” value in the assay with panel of 97 kinases (inhibited kinases/tested kinases) is 0.196. For the same compound, the “AurA [pKd]” value at AurA [6] is 7.6.
